Results reported in patent US20220387357A1, “Method of Dosing a Pain Therapeutic” (priority 2021, published 2022).
Like-named read-outs stand apart in the source and are kept apart here.

How the values were obtained:
[1] = type: in vivo, human
Excerpt: Tachycardia was the most common adverse event (AE) in this study, reported in 5 of 48 subjects (10%) following active treatment and in no subjects following placebo; all of the treatment-emergent AEs (TEAEs) of tachycardia were deemed related to study treatment.
The Toxicity Grading Scale for Healthy Adult and Adolescent Volunteers Enrolled in Preventative Vaccine Clinical Trials criteria for tachycardia are defined as follows: […]
Severe (Grade 3): >130 bpm
In this study, tachycardia was dose limiting at a level >130 bpm.

[2] = Acute pain tail-flick assay, side-by-side mice studies; type: in vivo; conditions: side-by-side comparison, similar to opioids
[3] = Nonclinical studies of analgesia compared with morphine; type: in vivo
[4] = Preclinical animal models of pain; type: in vivo; conditions: acute pain, visceral pain, fibromyalgia, diabetic peripheral neuropathy, sciatica, chemotherapy induced pain, osteoarthritis models
Excerpt: (§1) Nevertheless, CMX-020 may produce adverse side effects when given at improper dosages. Methods of administrating an effective amount of the compound CMX-020 to produce an analgesia effective, while still being within a safe and tolerable dose, is both necessary and desirable.

[5] = type: in vivo, humans
Excerpt: as §1

CB1 receptors = CB1 receptors (Homo sapiens, UniProt P21554); conditions: mediated through CB1 receptors; cited from earlier work
[6] = Subject 0048, 0.24 mg/kg 15-minute infusion
[7] = Subject 0057, 0.32 mg/kg 30-minute infusion
[8] = following active treatment, all dose levels

Chain of CB1 receptors (P21554 whole entry, the tested form may be a part): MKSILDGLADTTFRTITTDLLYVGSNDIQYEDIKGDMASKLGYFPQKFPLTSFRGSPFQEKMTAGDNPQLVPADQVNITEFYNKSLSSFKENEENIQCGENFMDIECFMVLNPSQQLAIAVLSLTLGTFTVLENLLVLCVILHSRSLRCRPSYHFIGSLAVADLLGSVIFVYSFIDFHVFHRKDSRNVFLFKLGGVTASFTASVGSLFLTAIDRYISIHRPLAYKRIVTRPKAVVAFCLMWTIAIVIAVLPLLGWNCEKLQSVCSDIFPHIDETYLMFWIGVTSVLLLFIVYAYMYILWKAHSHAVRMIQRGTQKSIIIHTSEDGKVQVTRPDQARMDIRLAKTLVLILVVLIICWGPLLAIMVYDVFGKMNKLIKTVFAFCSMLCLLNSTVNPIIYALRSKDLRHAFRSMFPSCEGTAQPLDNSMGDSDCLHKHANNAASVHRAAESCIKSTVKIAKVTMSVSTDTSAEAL

CCCCCC(=O)N(CCC=C=CCCCC=C=CCC=C=CCCCC(=O)NC1CC1)C(C)C [CMX-020]
Number of elevated heart rate assessed as clinically significant ([1]; 0.32 mg/kg and 0.24 mg/kg 15-minute infusion groups compared with the other dose levels and placebo): higher number
Doses at which tachycardia was reported ([1]; 0.32 mg/kg and 0.24 mg/kg 15 minutes infusion and 0.32 mg/kg 30 minute infusion): only at the three highest doses
Time of peak heart rate following the start of treatment administration ([1]; Subject 0033, 0.32 mg/kg 15-minute infusion): 16 min
Heart rate after decrease ([1]; Subject 0033, 0.32 mg/kg 15-minute infusion, 15 minutes following the peak heart rate): 113 bpm
Peak Pulse ([1]; Subject 0033, Cohort 5, 0.32 mg/kg 15-minute infusion): 138 bpm
Time of peak heart rate following the start of dose administration ([1]; Subject 0036, 0.32 mg/kg 15-minute infusion): 16 min
Heart rate after decrease ([1]; Subject 0036, 0.32 mg/kg 15-minute infusion, 15 minutes following the start of treatment administration (so in the source)): 101 bpm
Peak Pulse ([1]; Subject 0036, Cohort 5, 0.32 mg/kg 15-minute infusion): 110 bpm
Time of elevated heart rate following the start of dose administration ([1]; Subject 0045, 0.24 mg/kg 15-minute infusion): 11 min
Heart rate after decrease ([1]; Subject 0045, 0.24 mg/kg 15-minute infusion, 10 minutes following the start of treatment administration (so in the source)): 109 bpm
Peak Pulse ([1]; Subject 0045, Cohort 6, 0.24 mg/kg 15-minute infusion (discontinued, total dose received 0.156 mg/kg)): 156 bpm
Time of TEAE of tachycardia following start of treatment administration [1, 6]: 11 min
Time of peak heart rate following start of treatment administration [1, 6]: 16 min
Heart rate after decrease ([1]; Subject 0048, 0.24 mg/kg 15-minute infusion, 15 minutes following the peak heart rate): 103 bpm
Peak Pulse ([1]; Subject 0048, Cohort 6, 0.24 mg/kg 15-minute infusion): 109 bpm
Time of TEAE of tachycardia following start of treatment administration [1, 7]: 16 min
Time of peak heart rate following start of treatment administration [1, 7]: 20 min
Heart rate after decrease ([1]; Subject 0057, 0.32 mg/kg 30-minute infusion, 20 minutes following the peak heart rate): 97 bpm
Peak Pulse ([1]; Subject 0057, Cohort 8, 0.32 mg/kg 30-minute infusion): 110 bpm
Time of peak in elevated heart rate following the start of treatment administration ([1]; cohorts 5 and 6, 15-minute infusions): 11 to 16 min
Time of peak in elevated heart rate ([1]; cohorts 7 and 8, 30-minute infusions): approximately 30 minutes
Incidence of tachycardia (adverse event) [1, 8]: 10%
Subjects reporting tachycardia (adverse event) [1, 8]: 5 of 48
Analgesic efficacy in the acute pain tail-flick assay [2]: highest level of analgesic efficacy
Analgesia compared with morphine [3]: analgesia equivalent to that achieved by morphine
Pain response in animal models of pain [4]: effectively reduce the pain response
Efficacy in proof-of-concept trial in sciatic pain ([5]; humans, sciatic pain): indicated efficacy
Safety when administered to humans ([5]; intravenous and oral formulations, several dose levels): demonstrated the safety

CCCCC/C=C\C/C=C\C/C=C\C/C=C\CCCC(=O)Nc1ccc(O)cc1 [AM404, reference compound]
Analgesic efficacy in the acute pain tail-flick assay [2]: highest level of analgesic efficacy
Anticonvulsant action (CB1 receptors): anticonvulsant action mediated through CB1 receptors
